Patent US4146622A, “Aziridinyl quinone anti-transplanted tumor agents” (priority 1977, dated 1979)
≈ marks a conversion by molar mass, not a printed value. Where “and” joins values, the source holds several entries; their conditions need not be identical. Equal entries are not always repeated. Entries after “also recorded” stand apart in the source; their conditions may differ. Where two headings read alike, the source gives them in different places.

Tests used:
lymphoid leukemia L1210 [1] = assay: Intracerebral (IC) lymphoid leukemia L1210 test; assay type: in vivo, murine; settings: for antitumor activity: IC L1210; for OD (optimum dose): IC L1210, QD1-9; for ILS (%) IC L1210: Table XI, outstanding activity
Description: ^b Ic tumor implantation, ip QD1-9 treatment schedule.
The L1210, P388 and B16 test systems described in Table II utilize intraperitoneal (IP) tumor implantation and IP drug treatment while the Lewis lung system employs subcutaneous tumor implantation and IP treatment. All three CNS tumor models (Table III) use intracerebral (IC) tumor implantation and IP treatment.
Consistent with NCI antitumor test protocols, intraperitoneal (IP) administration of the drug was employed with all five tumor systems investigated. Tumor implantation was IP in the systems designated IP leukemia L1210 and P388 as well as B16 melanoma. Intracerebral (IC) tumor implantation was utilized in the IC L1210 and ependymoblastoma tumor systems.

[2] = Room temperature water solubility; assay type: physicochemical
Experimental: In the following examples, all melting points are uncorrected and were recorded on a Thomas-Hoover capillary melting point apparatus. Elemental analyses were performed by NIAMDD, NIH, Bethesda, Maryland. Fluoranil, ethyleneimine and 2l -methylethyleneimine were obtained commerically. […] New compounds were identified by nmr and ir spectroscopy. In the tetraamino derivatives, the methylene protons of the aziridine rings usually occurred as a singlet at δ2.0-2.2 in CDCl3 or DMSO-d6. This absorption appeared at δ2.40 (CDCl3) for compound 11. Carbonyl absorption frequencies (nujol mull) occurred in the range 1620-1640 cm^-1 for the tetraamino compounds. Satisfactory elemental analyses (+0.4% of calculated values) are indicated by elemental symbols in Table VII. Room temperature water solubilities were determined by the incremental addition (pipet) of water to a weighed amount of compound with shaking. The solubility values in Table VII must be considered as approximate.

[3] = system: P388 lymphocytic leukemia; assay: Intraperitoneal (IP) lymphocytic leukemia P388 transplanted mouse tumor test; assay type: in vivo, murine; settings: for OD (optimum dose) / ILS (percentage increase in life span) / animals alive per 6 test animals on day of termination: Table IX; for OD (optimum dose): IP P388, QD1-9; for ILS (percentage increase in life span) / animals alive per 6 test animals on day of termination: IP P388, QD1-9, at OD; for animals alive per 6 test animals on day of termination / survivors (number in parentheses) P388: day 30; for survivors (number in parentheses) P388: Table XI, per 6 test animals; for antitumor activity: IP P388; for cures: P388, 30 day survivors, QD1-9
[4] = system: IP ascites tumor systems (leukemia L1210 and P388); assay: IP ascites tumor systems (leukemia L1210 and P388); assay type: in vivo, murine
Description: The criterion for minimum activity, %ILS, is defined here as follows: Intraperitoneal and intracerebral leukemia L1210 and intraperitoneal leukemia P388, 25%; intraperitoneal B16 melanoma and intracerebral ependymoblastoma, 40%. Consistent with NCI antitumor test protocols, intraperitoneal (IP) administration of the drug was employed with all five tumor systems investigated. Tumor implantation was IP in the systems designated IP leukemia L1210 and P388 as well as B16 melanoma. Intracerebral (IC) tumor implantation was utilized in the IC L1210 and ependymoblastoma tumor systems.

B16 melanocarcinoma = assay: Intraperitoneal B16 melanocarcinoma transplanted mouse tumor test; assay type: in vivo, murine; settings: for ILS (percentage increase in life span) / OD (optimum dose): Table IX; for ILS (percentage increase in life span): B16, QD1-9, at OD; for antitumor activity: B16 melanoma; for OD (optimum dose): B16, QD1-9; for ILS (%) B16: Table XI, outstanding activity
Description: ^b Ip tumor implantation, ip QD1-9 treatment schedule.
The L1210, P388 and B16 test systems described in Table II utilize intraperitoneal (IP) tumor implantation and IP drug treatment while the Lewis lung system employs subcutaneous tumor implantation and IP treatment.
Aqueous saline solution (0.9%) was used as the drug vehicle. Normally, five doses were employed per experiment with the top dose chosen to produce toxicity. The lower doses were 50% of each preceeding dose.
Consistent with NCI antitumor test protocols, intraperitoneal (IP) administration of the drug was employed with all five tumor systems investigated. Tumor implantation was IP in the systems designated IP leukemia L1210 and P388 as well as B16 melanoma.

ependymoblastoma = assay: Intracerebral (IC) ependymoblastoma (EM) brain tumor test; assay type: in vivo, murine; settings: for antitumor activity: IC ependymoblastoma (EM); for OD (optimum dose) / ILS (percentage increase in life span) / animals alive per 6 test animals on day of termination: Table X, IC ependymoblastoma; for OD (optimum dose): QD1-5; for ILS (percentage increase in life span) / animals alive per 6 test animals on day of termination: QD1-5, at OD
Description: ^c Ic tumor implantation, ip QD1-5 treatment schedule.
^g Number of animals alive per six test animals on day of termination
of experiment (day 99 for expt 133 and day 60 for expt 136 and 144).
A third IC transplanted mouse tumor model, the ependymoblastoma system, was also studied. This system requires intracerebral implantation of a solid tumor fragment while the IC L1210 and IC P388 systems utilize IC inoculated ascites tumor fluid. All three use IP drug treatment however. […] Cures (survivors from the group of six mice on the last day of the experiment) are indicated. Experiments 136 and 144 were terminated on day 60. Since the number of cures was about the same, the differences in T/C values in these two experiments reflect differences in the life span of the two different sets of control animals. Experiment 133 was terminated on day 99 with a resulting higher activity value.
The hydrophilic dihydroxypropylamino compound (No. 39), which was curative in the IP L1210 and P388 leukemia systems, was active but gave a large spread in ILS values (53-186%). […] Again, its hydrophilic character may present transport problems in this IC tumor system.

lymphoid leukemia L1210 [5] = assay: Intraperitoneal (IP) lymphoid leukemia L1210 transplanted mouse tumor test; assay type: in vivo, murine; settings: for animals alive per 6 test animals on day of termination / survivors (number in parentheses) IP L1210: day 30; for ILS (%) IP L1210 / survivors (number in parentheses) IP L1210: Table XI; for ILS (%) IP L1210: outstanding activity; for survivors (number in parentheses) IP L1210: per 6 test animals; for maximum ILS: IP L1210; for antitumor activity: IP L1210, tetraaminobenzoquinone series (Table VIII); for cures: survivors on day 30, L1210
Description: ^(a) Day 1-9 treatment schedule (9 injections)
^(b) Day 1,5,9 treatment schedule (3 injections)
^(c) Day 1 only treatment schedule (1 injection)
^(f) Percentage increase in life span of treated animals [(treated
survival .div. control survival) × 100%] - 100%

[6] = Octanol/H2O partition coefficient (log P); assay type: physicochemical; settings: Table VII, octanol/H2O; for logP: octanol/water
Description: ^(b) Octanol/H2 O values determined by C. Hansch and M. Yamakawa

[7] = Table X, IC L1210, QD1-9, at OD
[8] = water, Table VII, room temperature, approximate, read-out: Approx. H2O Sol.
[9] = Table VIII, IP L1210, Day 1 only (1 injection)
[10] = Table VIII, IP L1210, Q4D(1,5,9), at OD
[11] = Table VIII, IP L1210, QD1-9 (9 injections)
[12] = Table VIII, IP L1210, QD1-9, at OD
[13] = Table VIII, IP L1210, Day 1 only, at OD
[14] = Table VIII, IP L1210, Q4D(1,5,9) (3 injections)

Row | Structure (SMILES) | antitumor activity (lymphoid leukemia L1210 [1]) | OD (optimum dose) (lymphoid leukemia L1210 [1]; Table X) | ILS (percentage increase in life span) (lymphoid leukemia L1210 [1]; [7]) | solubility [2, 8] [mg/mL] | OD (optimum dose) [3] | ILS (percentage increase in life span) [3] | animals alive per 6 test animals on day of termination [3] | survivors (number in parentheses) P388 [3] | antitumor activity [4] | ILS (percentage increase in life span) (B16 melanocarcinoma) | OD (optimum dose) (ependymoblastoma) [mg/kg/injection] | ILS (percentage increase in life span) (ependymoblastoma) | OD (optimum dose) (lymphoid leukemia L1210 [5]; [9]) | OD (optimum dose) (lymphoid leukemia L1210 [5]; [11]) | ILS (%) IP L1210 (lymphoid leukemia L1210 [5]) [%] | survivors (number in parentheses) IP L1210 (lymphoid leukemia L1210 [5]) | antitumor activity [3] | cures [3] | OD (optimum dose) (lymphoid leukemia L1210 [5]; [14]) | cures (lymphoid leukemia L1210 [5]) | also measured
1 | NC1=C(N2CC2)C(=O)C(N)=C(N2CC2)C1=O [Compound 33, 2,5-Dizairidinyl-3,6-diamino-1,4-benzoquinone] | most active; also recorded: significant activity | 0.3 mg/kg/injection | 60% and 59% | < 0.1 | 0.2 mg/kg/injection | 171% and 156% | 1 | 1 | active | 31% and 19% | 0.2 | 215% and 177% | 1.0 mg/kg/injection and 0.5 mg/kg/injection | 0.4 mg/kg/injection and 0.3 mg/kg/injection | 161 | 3 |  |  |  |  | ILS (%) IC L1210 (lymphoid leukemia L1210 [1]): 60%; solubility [2]: insoluble in any solvent; also recorded: exceptionally insoluble; antitumor activity (ependymoblastoma): among the most active materials; animals alive per 6 test animals on day of termination (ependymoblastoma; day 60): 4 and 6; survivors (number in parentheses) EM (ependymoblastoma; Table XI, per 6 test animals, day 60): 6; ILS (percentage increase in life span) (lymphoid leukemia L1210 [5]; [10]): 161% and 124%; animals alive per 6 test animals on day of termination (lymphoid leukemia L1210 [5]; [10]): 3 and 2; ILS (percentage increase in life span) (lymphoid leukemia L1210 [5]; [12]): 115% and 100%
2 | O=C1C(NCCO)=C(N2CC2)C(=O)C(NCCO)=C1N1CC1 [Compound 38] | marginal | 0.75 mg/kg/injection | 57% and 48% | 2 (≈ 6.49 mM) | 0.4 mg/kg/injection | 175% and 160% | 3 and 2 | 3 | most active; also recorded: superior | 61% and 51% | 1.5 | 83% and 70% | 1.5 mg/kg/injection | 0.7 mg/kg/injection | 205 | 2 | very active | multiple cures | 0.7 mg/kg/injection | produced cures | ILS (%) IC L1210 (lymphoid leukemia L1210 [1]): 57%; antitumor activity (B16 melanocarcinoma): active; OD (optimum dose) (B16 melanocarcinoma): 0.4 mg/kg/injection; ILS (%) B16 (B16 melanocarcinoma): 61%; logP [6]: -1.48; maximum ILS (lymphoid leukemia L1210 [5]): > 200%; antitumor activity (lymphoid leukemia L1210 [5]): Excellent activity; ILS (percentage increase in life span) (lymphoid leukemia L1210 [5]; [13]): 175% and 119%; animals alive per 6 test animals on day of termination (lymphoid leukemia L1210 [5]; [13]): 5 and 3; ILS (percentage increase in life span) (lymphoid leukemia L1210 [5]; [10]): 131% and 70%; ILS (percentage increase in life span) (lymphoid leukemia L1210 [5]; [12]): 205% and 134%; animals alive per 6 test animals on day of termination (lymphoid leukemia L1210 [5]; [12]): 2 and 3; cures (lymphoid leukemia L1210 [5]; listed as hydroxyethylamino): Multiple cures
3 | O=C1C(NCC(O)CO)=C(N2CC2)C(=O)C(NCC(O)CO)=C1N1CC1 (stereo not drawn) [Compound 39] | marginal | 4.0 mg/kg/injection | 41% and 43% | 30 (≈ 81.4 mM) | 4.0 mg/kg/injection | 143% and 141% | 6 and 4 | 6 | curative; also recorded: probably the most active compound | 50% and 42% |  | 99% and 53% | 4.0 mg/kg/injection and 2.0 mg/kg/injection | 4.0 mg/kg/injection and 2.0 mg/kg/injection | 206 | 5 | very active | multiple cures | 4.0 mg/kg/injection and 8.0 mg/kg/injection | produced cures | antitumor activity (B16 melanocarcinoma): active; OD (optimum dose) (B16 melanocarcinoma): 4.0 mg/kg/injection and 6.0 mg/kg/injection; ILS (%) B16 (B16 melanocarcinoma): 50%; ILS values (spread) (ependymoblastoma; EM, repeat tests): 53-186%; antitumor activity (ependymoblastoma): moderate to good EM activity; animals alive per 6 test animals on day of termination (ependymoblastoma; day 60): 1; log P [6]: -1.97; maximum ILS (lymphoid leukemia L1210 [5]): > 200%; antitumor activity (lymphoid leukemia L1210 [5]): Excellent activity; animals alive per 6 test animals on day of termination (lymphoid leukemia L1210 [5]; [13]): 4; cures (lymphoid leukemia L1210 [5]; listed as dihydroxypropylamino): Multiple cures
4 | O=C1C(N2CCN(CCO)CC2)=C(N2CC2)C(=O)C(N2CCN(CCO)CC2)=C1N1CC1 [Compound 47] | marginal | 2.0 mg/kg/injection and 1.5 mg/kg/injection | 43% and 41% | 20 (≈ 44.8 mM) | 0.5 mg/kg/injection and 1.0 mg/kg/injection | 149% and 143% | 3 and 6 | 3 | most active; also recorded: superior | 22% | 1.0 | 75% | 4.0 mg/kg/injection | 1.0 mg/kg/injection and 0.5 mg/kg/injection |  | 3 | very active | multiple cures | 4.0 mg/kg/injection and 2.0 mg/kg/injection | produced cures | T - C (average weight change of test group minus control) (lymphoid leukemia L1210 [1]; Table X, IC L1210, QD1-9, at OD, day 5): -1.4 grams; logP [6]: -0.75; animals alive per 6 test animals on day of termination (lymphoid leukemia L1210 [5]; [10]): 3 and 4; T - C (average weight change of test group minus control) (lymphoid leukemia L1210 [5]; Table VIII, IP L1210, QD1-9, at OD, day 5): -1.7 grams; animals alive per 6 test animals on day of termination (lymphoid leukemia L1210 [5]; [12]): 1
